{
  "source": "patent US20260109688A1",
  "about": "“NOVEL ANTIBIOTIC COMPOUND” (SINTEF TTO AS, priority 2022, published 2026)",
  "key": {"E. faecium CCUG 37832": {"tested_on": "E. faecium CCUG 37832", "assay": "In vitro MIC bioassay (broth microdilution, 384 well)", "assay_type": "cell-based, Enterococcus faecium", "settings": "Mueller-Hinton broth, 2.7% DMSO", "procedure": "(§1) Minimal inhibitory concentrations against a selection of Gram-positive indicator organisms (MICs) were determined according to Clinical and Laboratory Standards Institute protocols by microdilution tests using in a 384 well format. The indicator strains were incubated in TSB medium over night until OD600-0.4, then diluted to OD600=0.1 in TSB medium and further 45× in assay medium (Mueller-Hinton broth, Difco). Inoculated medium was distributed into assay plates. Inoculated wells were added a 2× dilution series of either isolated compound or vancomycin (reference) diluted in DMSO, giving a final DMSO concentration in each well of 2.7%, and final concentrations of active compound between 0 and 540 μg/ml (23 different concentrations). Four parallels were assayed for each compound and concentration. 0.5 mg of the compound produced by strain M1152ΔmatAB (P08-G05_C16) was purified on preparative HPLC, and the pure compound was tested in bioassay against a panel of strains. The indicator organisms were M. luteus ATCC 9341, Staphylococcus aureus ATCC 29213, Staphylococcus aureus ATCC 43300 (MRSA), Enterococcus faecium CCUG 37832, Enterococcus faecium CTC 492."}, "E. faecium CTC 492": {"tested_on": "E. faecium CTC 492", "assay": "In vitro MIC bioassay (broth microdilution, 384 well)", "assay_type": "cell-based, Enterococcus faecium", "settings": "Mueller-Hinton broth, 2.7% DMSO", "procedure": "as §1"}},
  "data": [
    {"smiles": "CN[C@H](CC(C)C)C(=O)N[C@H]1C(=O)N[C@@H](CC(N)=O)C(=O)N[C@H]2C(=O)N[C@H]3C(=O)N[C@H](C(=O)N[C@H](C(=O)O)c4cc(O)cc(O)c4-c4cc3ccc4O)[C@H](O)c3ccc(c(Cl)c3)Oc3cc2cc(c3O[C@@H]2O[C@H](CO)[C@@H](O)[C@H](O)[C@H]2O[C@H]2C[C@](C)(N)[C@H](O)[C@H](C)O2)Oc2ccc(cc2Cl)[C@H]1O", "note": "[Vancomycin, vancomycin]", "values": [
      {"measurement": "MIC70: E. faecium CCUG 37832", "setting": "E. faecium CCUG 37832", "result": 270, "unit": "µg/mL"},
      {"measurement": "MIC70: E. faecium CTC 492", "setting": "E. faecium CTC 492", "result": 1.06, "unit": "µg/mL"}
    ]}
  ]
}
